Data reported in PubChem BioAssay AID1259407 (Chemical Carcinogenesis Research Information System (CCRIS), 2018).
Calls of active or inactive are those of the source. No rule for the calls is given here.

System: CCRIS mutagenicity, Ames/micronucleus/aberration tests
Test: CCRIS mutagenicity studies
[1] = Test System: AMES SALMONELLA TYPHIMURIUM, Strain/Indicator: TA100, Metabolic Activation: NONE, Method: STANDARD PLATE

C=CC1=C(C)C(/C=c2/[nH]/c(=C\c3[nH]c(/C=C4\NC(=O)C(C)=C4C=C)c(C)c3CCC(=O)O)c(CCC(=O)O)c2C)=NC1=O
mutagenic call (Test System: Ames Salmonella typhimurium, Strain/Indicator: TA98, Metabolic Activation: Liver, S-9, Method: Preincubation): inactive; negative
mutagenic call (Test System: Ames Salmonella typhimurium, Strain/Indicator: TA100, Metabolic Activation: Liver, S-9, Method: Preincubation): inactive; negative
mutagenic call (Test System: Ames Salmonella typhimurium, Strain/Indicator: TA100, Metabolic Activation: None, Method: Preincubation): inactive; negative
mutagenic call (Test System: Ames Salmonella typhimurium, Strain/Indicator: TA102, Metabolic Activation: Liver, S-9, Method: Preincubation): inactive; negative
mutagenic call (Test System: Ames Salmonella typhimurium, Strain/Indicator: TA102, Metabolic Activation: None, Method: Preincubation): inactive; negative

O=[N+]([O-])c1ccc(-c2ccccc2)cc1
mutagenic call (Test System: AMES SALMONELLA TYPHIMURIUM, Strain/Indicator: TA98(1,8-DNP6), Metabolic Activation: NONE): inactive; negative
mutagenic call (Test System: AMES SALMONELLA TYPHIMURIUM, Strain/Indicator: TA98(1,8-DNP6), Metabolic Activation: NONE, Method: STANDARD PLATE): active; positive
mutagenic call (Test System: AMES SALMONELLA TYPHIMURIUM, Strain/Indicator: TA98(1,8-DNP6), Metabolic Activation: RAT, LIVER, S-9, AROCLOR 1254): inactive; negative
mutagenic call (Test System: AMES SALMONELLA TYPHIMURIUM, Strain/Indicator: TA98(NR), Metabolic Activation: NONE): inactive; negative
mutagenic call (Test System: AMES SALMONELLA TYPHIMURIUM, Strain/Indicator: TA98(NR), Metabolic Activation: NONE, Method: STANDARD PLATE): inactive; negative
mutagenic call (Test System: AMES SALMONELLA TYPHIMURIUM, Strain/Indicator: TA98(NR), Metabolic Activation: RAT, LIVER, S-9, AROCLOR 1254): inactive; negative
mutagenic call (Test System: AMES SALMONELLA TYPHIMURIUM, Strain/Indicator: TA98, Metabolic Activation: NONE): inactive; negative
mutagenic call (Test System: AMES SALMONELLA TYPHIMURIUM, Strain/Indicator: TA98, Metabolic Activation: NONE, Method: PREINCUBATION): active; positive
mutagenic call (Test System: AMES SALMONELLA TYPHIMURIUM, Strain/Indicator: TA98, Metabolic Activation: RAT, LIVER, S-9, AROCLOR 1254): inactive; negative
mutagenic call (Test System: AMES SALMONELLA TYPHIMURIUM, Strain/Indicator: TA98, Metabolic Activation: RAT, LIVER, S-9, PCB (10%), Method: PREINCUBATION): active; positive
mutagenic call (Test System: AMES SALMONELLA TYPHIMURIUM, Strain/Indicator: TA98, Metabolic Activation: RAT, LIVER, S-9, PCB, Method: PREINCUBATION): active; positive
mutagenic call (Test System: AMES SALMONELLA TYPHIMURIUM, Strain/Indicator: TA98, Metabolic Activation: RAT, LIVER, S-100 (CYTOSOL), Method: PREINCUBATION): active; positive
mutagenic call (Test System: AMES SALMONELLA TYPHIMURIUM, Strain/Indicator: TA98, Metabolic Activation: RAT, LIVER, S-100 (MICROSOMES), Method: PREINCUBATION): active; positive
mutagenic call (Test System: AMES SALMONELLA TYPHIMURIUM, Strain/Indicator: TA98, Metabolic Activation: S-9, Method: STANDARD PLATE): active; positive
mutagenic call (Test System: AMES SALMONELLA TYPHIMURIUM, Strain/Indicator: TA100(NR), Metabolic Activation: NONE): inactive; negative
mutagenic call (Test System: AMES SALMONELLA TYPHIMURIUM, Strain/Indicator: TA100(NR), Metabolic Activation: RAT, LIVER, S-9, AROCLOR 1254): inactive; negative
mutagenic call (Test System: AMES SALMONELLA TYPHIMURIUM, Strain/Indicator: TA100, Metabolic Activation: NONE): inactive; negative
mutagenic call [1]: active; positive
mutagenic call (Test System: AMES SALMONELLA TYPHIMURIUM, Strain/Indicator: TA100, Metabolic Activation: RAT, LIVER, S-9, AROCLOR 1254): inactive; negative
mutagenic call (Test System: AMES SALMONELLA TYPHIMURIUM, Strain/Indicator: TA100, Metabolic Activation: S-9, Method: STANDARD PLATE): active; positive
mutagenic call (Test System: AMES SALMONELLA TYPHIMURIUM, Strain/Indicator: TA104, Metabolic Activation: NONE): inactive; negative
mutagenic call (Test System: AMES SALMONELLA TYPHIMURIUM, Strain/Indicator: TA104, Metabolic Activation: RAT, LIVER, S-9, AROCLOR 1254): inactive; negative
mutagenic call (Test System: CHINESE HAMSTER OVARY, Strain/Indicator: CHO-K1-BH4 (HGPRT), Metabolic Activation: NONE, Method: SUSPENSION/PLATE): inactive; negative
mutagenic call (Test System: CHINESE HAMSTER OVARY, Strain/Indicator: CHO-K1-BH4 (HGPRT), Metabolic Activation: RAT, LIVER, S-9, AROCLOR, Method: SUSPENSION/PLATE): inactive; negative
mutagenic call (Test System: UDS RAT HEPATOCYTES, Strain/Indicator: THY INCORP, Metabolic Activation: NONE, Method: AUTORADIOGRAPHY (SERUM-FREE MEDIA)): active; positive

CN(C)c1ccc(C(=C2C=CC(=[N+](C)C)C=C2)c2ccccc2)cc1
mutagenic call (End Point: IN VIVO MICRONUCLEUS, Test System: PERIPHERAL BLOOD ERYTHROCYTES, Species: MOUSE, Strain/Sex: BIG BLUE B6C3F1/FEMALE, Route: DIET): inactive; negative
mutagenic call (Test System: AMES SALMONELLA TYPHIMURIUM, Strain/Indicator: TA97A, Metabolic Activation: NONE, Method: STANDARD PLATE): inactive; negative
mutagenic call (Test System: AMES SALMONELLA TYPHIMURIUM, Strain/Indicator: TA97A, Metabolic Activation: RAT LIVER S-9, 3-METHYLCHOLANTHRENE, PHENOBARBITAL, Method: STANDARD PLATE): inactive; negative
mutagenic call (Test System: AMES SALMONELLA TYPHIMURIUM, Strain/Indicator: TA98, Metabolic Activation: NONE, Method: STANDARD PLATE): inactive; negative
mutagenic call (Test System: AMES SALMONELLA TYPHIMURIUM, Strain/Indicator: TA98, Metabolic Activation: RAT LIVER S-9, 3-METHYLCHOLANTHRENE, PHENOBARBITAL, Method: STANDARD PLATE): inactive; negative
mutagenic call (Test System: AMES SALMONELLA TYPHIMURIUM, Strain/Indicator: TA98, Metabolic Activation: RAT, LIVER, S-9, Method: STANDARD PLATE): active; positive
mutagenic call [1]: inactive; negative
mutagenic call (Test System: AMES SALMONELLA TYPHIMURIUM, Strain/Indicator: TA100, Metabolic Activation: RAT LIVER S-9, 3-METHYLCHOLANTHRENE, PHENOBARBITAL, Method: STANDARD PLATE): inactive; negative
mutagenic call (Test System: AMES SALMONELLA TYPHIMURIUM, Strain/Indicator: TA100, Metabolic Activation: RAT, LIVER, S-9, Method: STANDARD PLATE): inactive; negative
mutagenic call (Test System: AMES SALMONELLA TYPHIMURIUM, Strain/Indicator: TA100, Method: PREINCUBATION): active; positive
mutagenic call (Test System: AMES SALMONELLA TYPHIMURIUM, Strain/Indicator: TA102, Metabolic Activation: NONE, Method: STANDARD PLATE): inactive; negative
mutagenic call (Test System: AMES SALMONELLA TYPHIMURIUM, Strain/Indicator: TA102, Metabolic Activation: RAT LIVER S-9, 3-METHYLCHOLANTHRENE, PHENOBARBITAL, Method: STANDARD PLATE): inactive; negative
mutagenic call (Test System: AMES SALMONELLA TYPHIMURIUM, Strain/Indicator: TA1535, Metabolic Activation: NONE, Method: STANDARD PLATE): inactive; negative
mutagenic call (Test System: AMES SALMONELLA TYPHIMURIUM, Strain/Indicator: TA1535, Metabolic Activation: RAT, LIVER, S-9, Method: STANDARD PLATE): inactive; negative
mutagenic call (Test System: AMES SALMONELLA TYPHIMURIUM, Strain/Indicator: TA1537, Metabolic Activation: NONE, Method: STANDARD PLATE): inactive; negative
mutagenic call (Test System: AMES SALMONELLA TYPHIMURIUM, Strain/Indicator: TA1537, Metabolic Activation: RAT, LIVER, S-9, Method: STANDARD PLATE): inactive; negative
mutagenic call (Test System: CHO/HGPRT, Strain/Indicator: CHO-K1, Metabolic Activation: NONE, Method: STANDARD PLATE): inactive; negative
mutagenic call (Test System: CHO/HGPRT, Strain/Indicator: CHO-K1, Metabolic Activation: RAT LIVER S-9, 3-METHYLCHOLANTHRENE, PHENOBARBITAL, Method: STANDARD PLATE): inactive; negative
